Consider three compounds from publication PMC5378611 (Drug testing and analysis, 2017).

Read-outs that look alike come from different tables or passages of the source.

The target in experiment [1] is serotonin transporters (SERT) (Rattus norvegicus, UniProt P31652). As to the kind of experiment: [3H]serotonin uptake inhibition via SERT in rat brain synaptosomes. The class given is cell-based.
In experiment [2] the target is dopamine transporters (DAT) (Rattus norvegicus, UniProt P23977). Put plainly: [3H]dopamine uptake inhibition via DAT in rat brain synaptosomes. The experiment is classed as cell-based.
For experiment [3], the target named is norepinephrine transporters (NET) (Rattus norvegicus, UniProt Q63380). As to the kind of experiment: [3H]norepinephrine uptake inhibition via NET in rat brain synaptosomes. The settings on record: times less potent, from IC50 values. The experiment is classed as cell-based.
The conditions of experiment [4]: cited from earlier work.
The next experiment relates to DAT. The conditions noted are these: read-out: binding affinity toward DAT IC50; [3H]WIN-35,428; cited from earlier work.
The mark [5] stands for this setting: read-out: [3H]5-HT uptake via SERT IC50, rat brain synaptosomes, 5 nM [3H]serotonin, mean ± SD, n = 3.

Sequence of serotonin transporters (SERT) (P31652 whole entry): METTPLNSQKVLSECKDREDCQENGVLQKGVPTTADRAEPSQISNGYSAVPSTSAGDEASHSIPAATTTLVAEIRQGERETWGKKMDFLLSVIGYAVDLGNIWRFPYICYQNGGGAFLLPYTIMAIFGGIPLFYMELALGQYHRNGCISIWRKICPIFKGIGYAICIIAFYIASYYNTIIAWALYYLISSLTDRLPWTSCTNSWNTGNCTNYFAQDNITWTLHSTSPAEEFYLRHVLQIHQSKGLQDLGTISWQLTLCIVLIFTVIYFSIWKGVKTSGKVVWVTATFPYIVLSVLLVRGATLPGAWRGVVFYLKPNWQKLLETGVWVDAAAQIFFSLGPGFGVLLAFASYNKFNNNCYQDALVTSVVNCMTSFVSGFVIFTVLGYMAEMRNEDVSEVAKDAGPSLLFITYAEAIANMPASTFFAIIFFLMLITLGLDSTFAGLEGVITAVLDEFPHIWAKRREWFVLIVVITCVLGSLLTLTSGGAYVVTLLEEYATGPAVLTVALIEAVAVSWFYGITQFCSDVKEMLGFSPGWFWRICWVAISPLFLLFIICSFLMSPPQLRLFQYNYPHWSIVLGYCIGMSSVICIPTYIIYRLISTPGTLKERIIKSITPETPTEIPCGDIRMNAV
Sequence of dopamine transporters (DAT) (P23977 whole entry): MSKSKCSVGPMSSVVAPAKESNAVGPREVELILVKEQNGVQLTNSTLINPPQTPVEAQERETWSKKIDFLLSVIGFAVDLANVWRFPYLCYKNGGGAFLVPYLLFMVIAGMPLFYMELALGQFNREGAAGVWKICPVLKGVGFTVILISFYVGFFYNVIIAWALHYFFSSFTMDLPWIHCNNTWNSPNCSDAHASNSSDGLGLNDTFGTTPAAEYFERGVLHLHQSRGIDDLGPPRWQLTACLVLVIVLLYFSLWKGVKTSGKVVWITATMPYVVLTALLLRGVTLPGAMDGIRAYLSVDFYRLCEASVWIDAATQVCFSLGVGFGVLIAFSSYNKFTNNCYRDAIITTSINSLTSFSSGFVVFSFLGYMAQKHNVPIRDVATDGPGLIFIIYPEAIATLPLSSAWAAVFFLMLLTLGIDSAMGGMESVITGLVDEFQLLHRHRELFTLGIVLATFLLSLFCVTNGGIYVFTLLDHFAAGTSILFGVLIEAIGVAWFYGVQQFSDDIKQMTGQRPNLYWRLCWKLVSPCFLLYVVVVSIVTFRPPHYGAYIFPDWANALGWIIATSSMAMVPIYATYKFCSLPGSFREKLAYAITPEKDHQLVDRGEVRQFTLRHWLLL
Sequence of norepinephrine transporters (NET) (Q63380 1-617): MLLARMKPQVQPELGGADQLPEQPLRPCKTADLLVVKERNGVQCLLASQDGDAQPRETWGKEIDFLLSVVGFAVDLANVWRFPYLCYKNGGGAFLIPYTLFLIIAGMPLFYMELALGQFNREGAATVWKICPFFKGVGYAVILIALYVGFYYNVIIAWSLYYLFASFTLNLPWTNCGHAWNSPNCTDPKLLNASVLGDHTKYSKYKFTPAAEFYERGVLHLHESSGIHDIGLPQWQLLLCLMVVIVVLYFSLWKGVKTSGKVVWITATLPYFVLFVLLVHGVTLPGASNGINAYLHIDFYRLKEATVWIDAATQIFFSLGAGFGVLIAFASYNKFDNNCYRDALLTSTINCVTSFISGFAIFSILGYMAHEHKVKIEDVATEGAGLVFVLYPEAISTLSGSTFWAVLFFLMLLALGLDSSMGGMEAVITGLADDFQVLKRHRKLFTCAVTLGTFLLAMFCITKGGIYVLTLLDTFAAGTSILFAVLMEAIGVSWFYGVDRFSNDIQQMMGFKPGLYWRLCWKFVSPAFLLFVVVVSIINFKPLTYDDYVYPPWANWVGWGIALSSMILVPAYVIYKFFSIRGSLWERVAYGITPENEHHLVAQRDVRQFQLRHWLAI

In the case of `COC(=O)C(c1ccccc1)C1CCCCN1` (stereo not shown) [MPH, methyl-2-phenyl-2-(piperidin-2-yl)acetate], the IC50 in experiment [1] is above 10 µM; in experiment [2], 0.131 ± 0.0142 µM. The “potency relative to (±)-threo-4F-MPH at the norepinephrine transporter” value in experiment [3] is “around 2.5”.
Turning to `COC(=O)[C@H](c1ccc(F)cc1)[C@H]1CCCCN1` (racemic) [(±)-erythro-4F-MPH, 4-Fluoromethylphenidate], the IC50 in experiment [1] (setting [5]) is above 10 µM.
For `COC(=O)[C@H](c1ccc(F)cc1)[C@H]1CCCCN1` (racemic) [(±)-threo-4F-MPH, 4-Fluoromethylphenidate], the IC50 in experiment [1] (setting [5]) is 8.8 µM; in the experiment on DAT, 0.035 µM. Besides, the “potency relative to MPH in drug discrimination” value in experiment [4] is “about three times more potent than MPH”.

Broadly, the IC50 is the concentration that gives 50% inhibition.
